Assay results reported in ChEMBL document CHEMBL5380816, “Inclusion of Nitrofurantoin into the Realm of Cancer Chemotherapy via Biology-Oriented Synthesis and Drug Repurposing” (J Med Chem, 2023).
Calls of active or inactive are those of the source. The rule behind the calls is not given here.

Legend:
[1] = Selectivity index, ratio of IC50 for human WI-38 cells to IC50 for human Caco-2 cells
[2] = Selectivity index, ratio of IC50 for human WI-38 cells to IC50 for human MCF7 cells; format: toxicity; conditions: WI-38 cells versus MCF7 cells, read-out: Ratio IC50
[3] = tested on: HeLa; assay: Anticancer activity against human HeLa cells incubated for 72 hrs by MTT assay; format: functional, cell-based
[4] = Selectivity index, ratio of IC50 for human WI-38 cells to IC50 for human HeLa cells; format: toxicity; conditions: WI-38 cells versus HeLa cells, read-out: Ratio IC50
[5] = Selectivity index, ratio of IC50 for human WI-38 cells to IC50 for human HepG2 cells; format: toxicity; conditions: WI-38 cells versus HepG2 cells, read-out: Ratio IC50
[6] = tested on: HepG2; assay: Anticancer activity against human HepG2 cells incubated for 72 hrs by MTT assay; format: functional, cell-based; conditions: HepG2, 72 h
[7] = tested on: Caco-2; assay: Anticancer activity against human Caco-2 cells incubated for 72 hrs by MTT assay; format: functional, cell-based; conditions: Caco-2, 72 h
[8] = tested on: MCF7; assay: Anticancer activity against human MCF7 cells incubated for 72 hrs by MTT assay; format: functional, cell-based; conditions: MCF7, 72 h
[9] = Cytotoxicity in human WI-38 cells assessed as reduction in cell viability incubated for 72 hrs by MTT assay; format: toxicity, cell-based
[10] = Cytotoxicity in human WI-38 cells assessed as safe dose incubated for 72 hrs by MTT assay; format: toxicity, cell-based; conditions: read-out: EC100
[11] = tested on: HepG2; assay: Potency index, ratio of 5-fluorouracil IC50 to test compound IC50 for antiproliferative activity against human HepG2 cells; format: functional
[12] = tested on: MCF7; assay: Potency index, ratio of 5-fluorouracil IC50 to test compound IC50 for antiproliferative activity against human MCF7 cells; format: functional
[13] = tested on: dsDNA; assay: Induction of damage in dsDNA (unknown origin) assessed as DNA disruption by measuring damage constant at 100 uM incubated for 2.5 hrs by EvaGreen based fluorescence plate reader analysis; format: nucleic-acid assay
[14] = tested on: dsDNA; assay: Induction of damage in dsDNA (unknown origin) assessed as DNA disruption by measuring amplitude at 100 uM incubated for 2.5 hrs by EvaGreen based fluorescence plate reader analysis; format: nucleic-acid assay
[15] = tested on: dsDNA; assay: Induction of damage in dsDNA (unknown origin) assessed as DNA disruption by measuring fluorescence intensity at 100 uM incubated for 2.5 hrs by EvaGreen based fluorescence plate reader analysis; format: nucleic-acid assay
[16] = tested on: MCF7; assay: Induction of apoptosis in human MCF7 cells assessed as pro-oxidant effect by measuring free radical generation measured at 0.097 uM after 72 hrs; format: functional, cell-based
[17] = tested on: Caco-2; assay: Induction of apoptosis in human Caco-2 cells assessed as pro-oxidant effect by measuring free radical generation measured at 0.097 uM after 72 hrs; format: functional, cell-based
[18] = tested on: Caco-2; assay: Induction of apoptosis in human Caco-2 cells assessed as ratio of gene expression activity in pro apoptotic Bax to anti apoptotic Bcl-2; format: functional
[19] = tested on: HepG2; assay: cells; conditions: Homo sapiens, HepG2, 72 h, read-out: Activity
Description: Induction of apoptosis in human HepG2 cells assessed as viable cells incubated at 0.027 uM for 72 hrs by annexin V-FITC based propidium iodide dual staining assay (Rvb = 97.27%)

[20] = tested on: HepG2; assay: Induction of apoptosis in human HepG2 cells assessed as ratio of gene expression activity in pro apoptotic Bax to anti apoptotic Bcl-2; format: functional
[21] = tested on: MCF7; assay: cells; conditions: Homo sapiens, MCF7, 72 h, read-out: Activity
Description: Induction of apoptosis in human MCF7 cells assessed as viable cells incubated at 0.027 uM for 72 hrs by annexin V-FITC based propidium iodide dual staining assay (Rvb = 99.9%)

[22] = target: Tumour suppressor p53/oncoprotein Mdm2 (Homo sapiens, UniProt P04637+Q00987); assay: Inhibition of human recombinant MDM2/p53 interaction measured after 10 mins by ELISA method; format: protein assay
[23] = tested on: HeLa; assay: Induction of apoptosis in human HeLa cells assessed as ratio of gene expression activity in pro apoptotic Bax to anti apoptotic Bcl-2; format: functional
[24] = tested on: MCF7; assay: Induction of apoptosis in human MCF7 cells assessed as ratio of gene expression activity in pro apoptotic Bax to anti apoptotic Bcl-2; format: functional
[25] = tested on: HeLa; assay: cells; conditions: Homo sapiens, 72 h, read-out: Activity
Description: Induction of apoptosis in human HeLa cells assessed as viable cells incubated at 0.027 uM for 72 hrs by annexin V-FITC based propidium iodide dual staining assay (Rvb = 97.23%)

[26] = tested on: Caco-2; assay: cells; conditions: Homo sapiens, Caco-2, 72 h, read-out: Activity

Chain of Tumour suppressor p53/oncoprotein Mdm2 (P04637 whole entry): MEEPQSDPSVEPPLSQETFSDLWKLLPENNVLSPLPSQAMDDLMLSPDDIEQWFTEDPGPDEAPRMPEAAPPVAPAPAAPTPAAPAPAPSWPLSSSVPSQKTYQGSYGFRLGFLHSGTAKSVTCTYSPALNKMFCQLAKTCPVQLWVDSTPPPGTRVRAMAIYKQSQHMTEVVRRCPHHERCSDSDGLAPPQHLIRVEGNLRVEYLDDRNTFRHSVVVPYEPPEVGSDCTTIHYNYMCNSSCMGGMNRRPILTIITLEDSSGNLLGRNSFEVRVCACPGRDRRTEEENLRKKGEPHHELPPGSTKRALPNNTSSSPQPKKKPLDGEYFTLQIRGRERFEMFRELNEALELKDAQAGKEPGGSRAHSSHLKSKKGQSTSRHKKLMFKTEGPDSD
Chain of Tumour suppressor p53/oncoprotein Mdm2 (Q00987 whole entry): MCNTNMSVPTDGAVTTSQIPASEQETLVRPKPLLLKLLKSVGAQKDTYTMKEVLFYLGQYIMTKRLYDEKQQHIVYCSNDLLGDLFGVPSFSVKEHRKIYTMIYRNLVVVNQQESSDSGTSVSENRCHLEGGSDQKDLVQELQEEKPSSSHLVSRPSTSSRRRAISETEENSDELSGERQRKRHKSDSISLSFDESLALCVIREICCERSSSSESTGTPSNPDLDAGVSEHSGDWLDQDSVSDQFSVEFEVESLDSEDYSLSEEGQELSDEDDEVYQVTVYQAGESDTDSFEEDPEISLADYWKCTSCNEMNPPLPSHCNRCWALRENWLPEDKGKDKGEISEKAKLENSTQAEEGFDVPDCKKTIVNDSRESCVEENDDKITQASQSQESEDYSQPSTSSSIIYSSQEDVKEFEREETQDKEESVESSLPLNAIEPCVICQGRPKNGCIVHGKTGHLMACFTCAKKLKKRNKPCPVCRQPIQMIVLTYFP

SMILES | Ratio IC50 [1] | IC50 [3] | IC50 [6] | IC50 [7] | IC50 [8] | selectivity ratio [2] | selectivity ratio [4] | selectivity ratio [5] | IC50 at 72 h [9] | MNTC at 72 h [10] | Ratio IC50 [11] | Ratio IC50 [12] | also measured
Cc1ccc(C(=O)CN2C(=O)CN(/N=C/c3ccc([N+](=O)[O-])o3)C2=O)cc1 | 1.28 | 115 nM | 287 nM | 140 nM | 255 nM | 0.706 | 1.58 | 0.628 | 180 nM | 33 nM |  |  | 
COc1ccc(C(=O)CN2C(=O)CN(/N=C/c3ccc([N+](=O)[O-])o3)C2=O)cc1 | 1.37 | 87 nM | 149 nM | 105 nM | 198 nM | 0.706 | 1.61 | 0.948 | 140 nM | 26 nM | 1.2 | 1.2 | 
O=C1CN(/N=C/c2ccc([N+](=O)[O-])o2)C(=O)N1Cc1ccc([N+](=O)[O-])cc1 | 1.75 | 121 nM | 127 nM | 103 nM | 103 nM | 1.77 | 1.51 | 1.42 | 181 nM | 9 nM | 1.2 | 1.2 | 
COc1cccc2c1C(=O)c1c(O)c3c(c(O)c1C2=O)C[C@@](O)(C(=O)CO)C[C@@H]3O[C@H]1C[C@H](N)[C@H](O)[C@H](C)O1 |  |  |  |  |  |  |  |  |  |  |  |  | Activity [13]: 15.2; Activity [14]: 218; Activity [15]: 65.4
O=C(CN1C(=O)CN(/N=C/c2ccc([N+](=O)[O-])o2)C1=O)c1ccc(Br)cc1 | 3.05 | 97 nM | 289 nM | 78 nM | 105 nM | 2.31 | 2.47 | 0.83 | 240 nM | 66 nM |  | 1.2 | 
O=C1CN(/N=C/c2ccc([N+](=O)[O-])o2)C(=O)N1 [NITROFURANTOIN] | 1.41 | 166 nM |  | 115 nM |  |  | 0.98 |  | 162 nM | 27 nM |  |  | Ratio [18]: 1.385; viability at 0.027 µM [19]: 98.7%; Ratio [20]: 1.002; viability at 0.027 µM [21]: 98.8%; IC50 [22]: 1580 nM; Ratio [23]: 1.42; Ratio [24]: 0.958; viability at 0.027 µM [25]: 84.8%; viability at 0.027 µM [26]: 85%

Now from value to compound, other results behind:

Ratio IC50 [1] | IC50 [3] | IC50 [6] | IC50 [7] | IC50 [8] | SMILES | selectivity ratio [2] | selectivity ratio [4] | selectivity ratio [5] | IC50 at 72 h [9] | MNTC at 72 h [10] | Ratio IC50 [11] | Ratio IC50 [12] | also measured
2.05 | 59 nM | 283 nM | 113 nM | 145 nM | Cc1ccc(-n2cc(CN3C(=O)CN(/N=C/c4ccc([N+](=O)[O-])o4)C3=O)nn2)cc1 | 1.6 | 3.92 | 0.824 | 232 nM | 27 nM |  | 1.2 | 
1.32 | 113 nM | 63 nM | 140 nM | 117 nM | O=C1CN(/N=C/c2ccc([N+](=O)[O-])o2)C(=O)N1Cc1cn(-c2ccc([N+](=O)[O-])cc2)nn1 | 1.56 | 1.62 | 2.92 | 183 nM | 26 nM | 1.2 | 1.2 | 
1.01 | 108 nM | 71 nM | 87 nM | 120 nM | O=C1CN(/N=C/c2ccc([N+](=O)[O-])o2)C(=O)N1Cc1cn(-c2ccc(S(=O)(=O)Nc3nccs3)cc2)nn1 | 0.727 | 0.813 | 1.23 | 87.9 nM | 32 nM | 1.2 | 1.2 | 
1.19 | 129 nM | 120 nM | 182 nM | 113 nM | O=C1CN(/N=C/c2ccc([N+](=O)[O-])o2)C(=O)N1Cc1ccccc1 | 1.92 | 1.68 | 1.82 | 216 nM | 33 nM | 1.2 | 1.2 | 
3.08 |  | 277 nM | 73 nM | 76 nM | O=C(CN1C(=O)CN(/N=C/c2ccc([N+](=O)[O-])o2)C1=O)c1ccccc1 | 2.98 |  | 0.824 | 226 nM | 19 nM |  | 1.2 | 
1.53 | 84 nM | 104 nM | 144 nM | 128 nM | O=C1CN(/N=C/c2ccc([N+](=O)[O-])o2)C(=O)N1Cc1cn(-c2ccccc2)nn1 | 1.74 | 2.61 | 2.11 | 220 nM | 36 nM | 1.2 | 1.2 | 
 | 183 nM | 67 nM |  | 80 nM | O=C1CN(/N=C/c2ccc([N+](=O)[O-])o2)C(=O)N1Cc1ccc(Br)cc1 | 1.5 | 0.65 | 1.78 | 119 nM | 32 nM | 1.2 | 1.2 | 
1.95 | 78 nM | 400 nM | 77 nM | 85 nM | O=C1CN(/N=C/c2ccc([N+](=O)[O-])o2)C(=O)N1Cc1cn(-c2ccc(Cl)cc2)nn1 | 1.77 | 1.92 | 0.376 | 150 nM | 29 nM |  | 1.2 | Activity [16]: Active; Activity [17]: Active
